Reference: patent US20260337209A1, “BORON-CAPPED CLATHROCHELATE AND MACROCYCLIC LIGANDS AND METAL COMPLEXES THEREOF” (UVic Industry Partnerships Inc., priority 2022, published 2026)
Counter-ions that a name gives are not always drawn.

Experiments:
Assay type in all cases: physicochemical
[1] = solubility in solvents; settings: for solubility in acetone: solvent acetone
[2] = TGA (thermogravimetric analysis); settings: [4a]·i-PrOH·2 H2O
Description: Exemplary embodiments of the technology are illustrated by the following non-limiting Examples, in which the reactions were carried out under air or nitrogen as indicated using commercially available reagents as received unless otherwise specified. NMR spectra were recorded on Bruker AVANCE 300, 360 or 500 MHz instruments relative to residual solvent resonances (^1H, ^13C), an external reference (BF3·OEt2 for ^11B) or by indirect detection (^15N by HMBC, in ppm relative to NH3). Melting points were determined using an Omega Engineering Model 199 instrument and are uncorrected. Mass spectra were recorded on a Q-TOF II instrument by MicroMass using electrospray ionization. TGA were recorded between room temperature and 600° C. Elemental analysis for C, H and N were obtained by Canadian Microanalytical Services, Delta, B.C., Canada or Guelph Chemical Laboratories Ltd., Guelph, ON, Canada.

[3] = CV (cyclic voltammetry) in dry CH3CN; settings: 0.1 M NBu^n4^+PF6^−
Description: Mauve powder. Yield: 92% (based on formula). Mp. dec. 315° C. ^1H NMR (300 MHz, dmso-d6, 298 K): δ 80.0 (1H relative int., v1/2=450 Hz), 77.9 (1H, v1/2=50 Hz), 53.1 (2H, v1/2=480 Hz), 46.8 (2H, v1/2=450 Hz), 39.4 (2H and 1H overlap, broad and sharp resonances), 21.8 and 19.5 (2H each, broad and overlapping), 13.0 (1H, v1/2=400 Hz), −2.0 (1H, v1/2=350 Hz), −4.2 (1H, v1/2=350 Hz), […] (2H, v1/2=450 Hz), −8.6 (1H, v1/2=40 Hz), −28.7 (1H, v1/2=50 Hz), −52.7 (1H, v1/2=450 Hz), −72.8 (v1/2=500 Hz). NMR (360 MHz, dmso-d6, 373 K): δ 18.49 (6H, br s, 4′- or 5′-pzH, v1/2=85 Hz), 17.00 (6H, br s, 3,5-pyH, v1/2=65 Hz), 7.88 (6H, br s, 4′- or 5′-pzH, v1/2=80 Hz), 4.18 (3H, br s, 4-pyH, v1/2=30 Hz), −4.25 (2H, br s, BH, v1/2=320 Hz). […] Fc/Fc^+); Co(NO3)2 under the same conditions: E1/2 (ox)=+1.8 V (vs. Fc/Fc^+). μeff=4.7 BM (Evans' method). A mononuclear 1:1 complex [9a]of cage [4a] with Co^2+ has been characterized by X-ray crystallography. A Co(OH2)3^2+ unit is bound up in the tris(pyrazolyl) cap.
A blue-green powder was obtained from reaction of Cu(NO3)2(H2O)2.5 with [4a] in a 1:1 ratio. The ^1H NMR spectrum of this product is very similar to that of [11c′], obtained as one product in the reaction of Cu(O3SCF3)2 with [4a] in 3:1 ratio. […]

Molecule: c1cc2nc(c1)-c1ccn(n1)B1n3ccc(n3)-c3cccc(n3)-c3ccn(n3)B(n3ccc-2n3)n2ccc(n2)-c2cccc(n2)-c2ccn1n2 [4a, Tris(2,6-pyrazolylpyridino)diborate dipotassium salt]
- solubility in halocarbons ([1]; CH2Cl2 and CHCl3): slightly soluble
- solubility in alcohols ([1]; MeOH, EtOH, i-PrOH): slightly soluble
- solubility in pure water ([1]; pure water): very limited solubility
- solubility in DMSO ([1]; solvent DMSO): very soluble
- solubility in THF ([1]; solvent THF): moderately soluble
- solubility in acetone [1]: very soluble
- solubility in acidic water ([1]; solvent acidic water): moderately soluble
- solubility in ethyl acetate ([1]; solvent ethyl acetate): moderately soluble
- onset of decomposition (TGA) [2]: > 450 °C

Molecule: CC1(C)c2ccn(n2)Bn2ccc(n2)C(C)(C)c2ccn(n2)Bn2ccc1n2 [8′a, Bis(2,2-dipyrazolylpropane)diborate dipotassium salt]
- solubility in diethyl ether ([1]; diethyl ether, relative to the corresponding cage [7′a]): notably less soluble

Molecule: O=[N+]([O-])[O-].O=[N+]([O-])[O-].[Cu+2] [Cu(NO3)2]
- E1/2 (red) [3]: −0.8 V (vs. Fc/Fc^+)

Molecule: c1cc2cc(c1)-c1ncn(n1)B1n3cnc(n3)-c3cccc(c3)-c3ncn(n3)B(n3cnc-2n3)n2cnc(n2)-c2cccc(c2)-c2ncn1n2 [7a, tris(2,6-di(1′,2′,4′-triazol-3′ yl)benzene)diborate dipotassium salt]
- solubility in dmso-d6 ([1]; dmso-d6, mild heating): dissolved with mild heating in dmso-d6
- solubility in acetone [1]: would not dissolve in acetone

Molecule: Tris(2,6-pyrazolyl-4-(4′-methoxybenzylthiolato)pyridino)diborate dipotassium salt [4t]
- solubility in benzene ([1]; solvent benzene): somewhat soluble

Molecule: O=[N+]([O-])[O-].O=[N+]([O-])[O-].[Co+2] [Co(NO3)2]
- E1/2 (ox) ([3]; 250 mV s^−1): +1.8 V (vs. Fc/Fc^+)
